Data taken from PubChem BioAssay AID1963837 (Molecular Pharmacology Branch, DTP, NCI, 2024).

Test system: 843126-344-R-J1-PDC complex spheroid viability
Test: Anticancer human tumor 843126-344-R-J1-PDC patient-derived melanoma cell line growth inhibition [POLQ]
Conditions: for IC50: curve of first compound; for viability, T/C: stronger effect = lower value
Experimental: Multicellular complex tumor spheroid response to Polymerase (POL) inhibitors (novobiocin, ART-558, RP6685) in combination with a variety of drugs and investigational agents in selected tumor cell lines
The POL inhibitors (novobiocin, ART-558, and RP6685) were evaluated both individually and in combination with standard of care and investigational anticancer small molecules within a complex spheroid model of solid tumors. . Complex spheroids include a stromal component modeled by human endothelial cells (HUVEC) and fibroblasts modeled by human mesenchymal stem cells (MSCs). The concentration ranges selected for each drug and investigational agent were based upon clinically achievable concentrations if the clinical Cmax of the agent was known.
Compounds. The drugs and investigational agents: novobiocin (NSC847541), ART-558 (NSC835418), RP-6685 (NSC848927), peposertib (NSC802822), ceralasertib (NSC780249), elimusertib (NSC800525), camonsertib (NSC841442), AZD-1390 (NSC803789), olaparib (NSC753686), talazoparib (NSC767125), rucaparib (NSC756644), sotorasib (NSC818433), MRTX-1133 (NSC836407), SN-38 (NSC673596), topotecan (NSC609699), epotoside (NSC141540), doxorubicin (NSC123127), gemcitabine (NSC613327), 5-fluorouracil (NSC19893), paclitaxel (NSC125973), vemurafenib (NSC761431), MSA-2 (NSC828583), SN-011 (NSC837082), adavosertib (NSC754352), prexasertib (NSC758257), carboplatin (NSC241240) and oxaliplatin (NSC266046), were obtained from the National Cancer Institute (NCI) Developmental Therapeutics Program Chemical Repository (21). The FDA-approved anticancer drug set is available from the Developmental Therapeutics Program at https://dtp.cancer.gov/organization/dscb/obtaining/. […] The stock solutions were prepared in dimethyl sulfoxide (DMSO, Sigma-Aldrich, St. Louis, MO, cat. D2650), except for the platinum compounds which were prepared in saline (Quality Biological, Gaithersburg, MD, cat. 114-055-101), at 800-fold the tested concentration and stored at -70 degrees C prior to their use. All drugs and investigational agents were tested over a range starting from a high concentration at or near the clinical Cmax and decreasing in half-log increments. If the clinical Cmax for an agent had not been determined, the highest concentration tested was 10 microM, except for SN-38, which was tested at a high concentration of 1 microM.
Cell Culture. All cells were maintained in an incubator at 37 degrees C and 5% CO2 with 95% humidity. The PDC lines were cultured according to standard operating procedures established by the NCI PDMR (https://pdmr.cancer.gov). Table 3 of the manuscript, lists the cell lines along with the number of the three cell types plated to form the mct-spheroids and media for tumor cell growth. After thawing, all PDC lines, except 997537-175-T-J1-PDC and 415267-285-R-J2-PDC, were cultured in Matrigel-coated flasks prepared with a working solution of 1X Ham's F-12 nutrient mix, without supplementation (Thermo Fisher Scientific, cat. 11765054), 100 U/mL penicillin-streptomycin (Thermo Fisher Scientific, cat. 15140122), and 2.5% Matrigel (Corning Inc., Corning, NY, cat. 354248) for the first three passages. The two PDC lines 997537-175-T-J1-PDC and 415267-285-R-J2-PDC were cultured on uncoated flasks. The 857933-349-R-J2-PDC line was cultured in 6C/Colon 1B media containing advanced DMEM/F-12 (Thermo Fisher Scientific, cat. 12634028), 10 mM HEPES (Thermo Fisher Scientific, cat. 15630080), 1X GlutaMAX supplement (Thermo Fisher Scientific, cat. 35050061), 0.1 mg/mL primocin (InvivoGen, San Diego, CA, cat. ant-pm-2), 10% defined fetal bovine serum, heat inactivated (HyClone Laboratories Inc., Logan, UT, cat. SH30070.03HI), 50% L-WRN conditioned media (ATCC, cat. CRL-3276), 1.25 mM N-Acetyl-L-cysteine (Sigma-Aldrich, cat. A9165), 10 mM nicotinamide (Sigma-Aldrich, cat. N0636), 1X B-27 supplement (Thermo Fisher Scientific, cat. 17504044), 1X N-2 supplement (Thermo Fisher Scientific, cat. […]

[1] = second compound 0.0316 µM, first compound 0.0316 µM
[2] = second compound 0.0316 µM, first compound 0.1 µM
[3] = second compound 0.1 µM, first compound 0.0316 µM
[4] = second compound 0.1 µM, first compound 0.1 µM
[5] = second compound 0.316 µM, first compound 0.0316 µM
[6] = second compound 0.316 µM, first compound 0.1 µM
[7] = second compound 1 µM, first compound 0.0316 µM
[8] = second compound 1 µM, first compound 0.1 µM
[9] = second compound 3.16 µM, first compound 0.0316 µM
[10] = second compound 3.16 µM, first compound 0.1 µM
[11] = second compound 10 µM, first compound 0.0316 µM
[12] = second compound 10 µM, first compound 0.1 µM
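Wherever viability, T/C is given: spheroids exposed to drugs for seven days before readout.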

CCc1cc2c(N3CCc4c(cc(Cn5ccnc5)cc4-c4cn(C)nc4C(F)(F)F)C3=O)ccnc2c(OC)n1 + Cc1cccc(N(C)C(=O)C2C(O)CCN2c2nc(C)cc(C(F)(F)F)c2C#N)c1
IC50 (second compound 0.0316 µM): > 10 µM | IC50 (second compound 0.1 µM): > 10 µM | IC50 (second compound 0.316 µM): > 10 µM | IC50 (second compound 1 µM): > 10 µM | IC50 (second compound 3.16 µM): > 10 µM | IC50 (second compound 10 µM): > 10 µM | viability, T/C [1]: 91.3% | viability, T/C [2]: 79.8% | viability, T/C (second compound 0.0316 µM, first compound 0.316 µM): 80.6% | viability, T/C (second compound 0.0316 µM, first compound 1 µM): 83.3% | viability, T/C (second compound 0.0316 µM, first compound 3.16 µM): 69.9% | viability, T/C (second compound 0.0316 µM, first compound 10 µM): 61.4% | viability, T/C [3]: 90% | viability, T/C [4]: 88.4% | viability, T/C (second compound 0.1 µM, first compound 0.316 µM): 87.1% | viability, T/C (second compound 0.1 µM, first compound 1 µM): 90% | viability, T/C (second compound 0.1 µM, first compound 3.16 µM): 72.3% | viability, T/C (second compound 0.1 µM, first compound 10 µM): 60.4% | viability, T/C [5]: 99.6% | viability, T/C [6]: 74.9% | viability, T/C (second compound 0.316 µM, first compound 0.316 µM): 86% | viability, T/C (second compound 0.316 µM, first compound 1 µM): 78.5% | viability, T/C (second compound 0.316 µM, first compound 3.16 µM): 69% | viability, T/C (second compound 0.316 µM, first compound 10 µM): 61.2% | viability, T/C [7]: 101% | viability, T/C [8]: 77.3% | viability, T/C (second compound 1 µM, first compound 0.316 µM): 86.3% | viability, T/C (second compound 1 µM, first compound 1 µM): 73.5% | viability, T/C (second compound 1 µM, first compound 3.16 µM): 68% | viability, T/C (second compound 1 µM, first compound 10 µM): 55.3% | viability, T/C [9]: 100% | viability, T/C [10]: 84.8% | viability, T/C (second compound 3.16 µM, first compound 0.316 µM): 79.3% | viability, T/C (second compound 3.16 µM, first compound 1 µM): 72.4% | viability, T/C (second compound 3.16 µM, first compound 3.16 µM): 69.3% | viability, T/C (second compound 3.16 µM, first compound 10 µM): 63.1% | viability, T/C [11]: 88.2% | viability, T/C [12]: 92.2% | viability, T/C (second compound 10 µM, first compound 0.316 µM): 75.5% | viability, T/C (second compound 10 µM, first compound 1 µM): 68.8% | viability, T/C (second compound 10 µM, first compound 3.16 µM): 70.7% | viability, T/C (second compound 10 µM, first compound 10 µM): 64.4%

Cn1ncnc1[C@H]1c2n[nH]c(=O)c3cc(F)cc(c23)N[C@@H]1c1ccc(F)cc1 + Cc1cccc(N(C)C(=O)C2C(O)CCN2c2nc(C)cc(C(F)(F)F)c2C#N)c1
IC50 (second compound 0.0316 µM): > 0.1 µM | IC50 (second compound 0.1 µM): > 0.1 µM | IC50 (second compound 0.316 µM): > 0.1 µM | IC50 (second compound 1 µM): > 0.1 µM | IC50 (second compound 3.16 µM): > 0.1 µM | IC50 (second compound 10 µM): > 0.1 µM | viability, T/C (second compound 0.0316 µM, first compound 0.000316 µM): 83.1% | viability, T/C (second compound 0.0316 µM, first compound 0.001 µM): 80% | viability, T/C (second compound 0.0316 µM, first compound 0.00316 µM): 92.3% | viability, T/C (second compound 0.0316 µM, first compound 0.01 µM): 74.1% | viability, T/C [1]: 91.9% | viability, T/C [2]: 71.8% | viability, T/C (second compound 0.1 µM, first compound 0.000316 µM): 94.8% | viability, T/C (second compound 0.1 µM, first compound 0.001 µM): 91.6% | viability, T/C (second compound 0.1 µM, first compound 0.00316 µM): 96.6% | viability, T/C (second compound 0.1 µM, first compound 0.01 µM): 73% | viability, T/C [3]: 88.7% | viability, T/C [4]: 66% | viability, T/C (second compound 0.316 µM, first compound 0.000316 µM): 82.8% | viability, T/C (second compound 0.316 µM, first compound 0.001 µM): 82.5% | viability, T/C (second compound 0.316 µM, first compound 0.00316 µM): 89.5% | viability, T/C (second compound 0.316 µM, first compound 0.01 µM): 86.3% | viability, T/C [5]: 88.7% | viability, T/C [6]: 86.5% | viability, T/C (second compound 1 µM, first compound 0.000316 µM): 73.2% | viability, T/C (second compound 1 µM, first compound 0.001 µM): 67.6% | viability, T/C (second compound 1 µM, first compound 0.00316 µM): 92.6% | viability, T/C (second compound 1 µM, first compound 0.01 µM): 86.8% | viability, T/C [7]: 76.4% | viability, T/C [8]: 78.6% | viability, T/C (second compound 3.16 µM, first compound 0.000316 µM): 67.4% | viability, T/C (second compound 3.16 µM, first compound 0.001 µM): 78.7% | viability, T/C (second compound 3.16 µM, first compound 0.00316 µM): 88.9% | viability, T/C (second compound 3.16 µM, first compound 0.01 µM): 77.6% | viability, T/C [9]: 87.5% | viability, T/C [10]: 67.3% | viability, T/C (second compound 10 µM, first compound 0.000316 µM): 76.3% | viability, T/C (second compound 10 µM, first compound 0.001 µM): 87.8% | viability, T/C (second compound 10 µM, first compound 0.00316 µM): 84.2% | viability, T/C (second compound 10 µM, first compound 0.01 µM): 77.4% | viability, T/C [11]: 86.2% | viability, T/C [12]: 79.9%
